According to patent publication US10568931B2, “Pharmaceutical composition comprising ginseng extracts for prevention and treatment of ophthalmological diseases” (GINTONIN KU BIOTECH Co., Ltd., priority 2017, dated 2020):

How the values were obtained:
[1] = test system: human corneal epithelial-T (HCE-T) cells; test: Scratch wound healing / cell migration in HCE-T cells; assay type: cell-based; conditions: Ki16425 treated before gintonin
Procedure: HCE-T cells (RCB-2280) were purchased from a Riken cell bank. The HCE-T cells were cultured in a medium in which 10% FCS was contained in a DMEM-Ham F12 (1:1) medium (Araki-sasaki et al., Investigative Ophthalmology and Visual Science 36, 614-621, 1995; Arakisasaki et al., J cellular Physiol. 182, 189-195, 2000).
HCE-T (2.5×10^5/well) was planted in a 24-well plate and cultured for 24 hrs and then cultured for 6 hrs in a 0.2% FBS-containing DMEM medium again. The wound was made by drawing a line through the center of each well where cells grew by using a […] pipette tip and then the floating cells were washed twice with a 1% FBS-containing DMEM medium to be removed.
The cells were treated with 0.03 to 1 μg/ml of gintonin and cultured and compared with cells without treating gintonin by observing and photographing (100×) cell shapes before and after gintonin treatment of each well with an inverted fluorescence microscope (AxioVert200; Carl Zeiss).
For the analysis of the degree of cell growth in a part wounded with the pipette tip, an area of the wound part where cells were not recovered was measured using AxioVision.

[2] = test system: intracytoplasmic calcium in HCE-T cells; test: Fura 2 fluorescence measurement of [Ca^2+]i in HCE-T cell suspension; assay type: cell-based, human; conditions: LPA1/3 receptor antagonist
Procedure: Particularly, according to a method such as Jrgensen and the like, HCE-T cells (1 to 2×10^6 cell/ml) were mixed in […] Fura 2-AM while being shaken for 30 minutes at a 37° C. incubator by using a Ca^2+-containing buffer (pH 7.4) consisting of NaCl 120 mM, KCl 5 mM, MgCl2 1 mM, CaCl2 1.5 mM, glucose 10 mM, and HEPES 25 mM and a Ca^2+-free buffer (pH 7.4) consisting of NaCl 120 mM, KCl 5 mM, MgCl2 1 mM, EGTA 0.2 mM, glucose 10 mM, and HEPES 25 mM, and an excessive amount of fura-2 was removed by washing the cells with the Ca^2+ buffer or the Ca^2+-free buffer three times.
[Ca^2+]i was estimated in the Fura 2-loaded cells by using a RF-5300PC intracellular ion measurement system (Shimadzu Corporation, Japan). […] Excitation wavelengths were alternated between 340 and […] under a computer control and emission was detected at 510. […]
A measured ratio value of 340:380 was converted to a value of [Ca^2+]i by using Equation of Hounsell and the like (Hounsell, E. F., Davies, M. J., and Smith, K. D. (1997) Protein protocol handbook, Humanna press, Totawa, 803-804). […] Further, Sf380 and Sb380 are fluorescence intensity at 380 nm when adding digitonin and EGTA and the ratios are maximum and minimum values when these values are indicated (Grynkiewicz, G., M. Poenie, and R. Y. Tsien. (1985) J Biol Chem 260: 3440-3450).

Cc1noc(-c2ccc(CSCCC(=O)O)cc2)c1NC(=O)OC(C)c1ccccc1Cl (centres unmarked) [Ki16425]
Effect of antagonist pretreatment on gintonin-promoted cell migration [1]: the action of the gintonin is inhibited | Effect of antagonist on increase in intracytoplasmic calcium by gintonin [2]: blocked
